Assays:
[1] = test system: bleomycin (BLM) induced unilateral lung fibrosis model in Sprague Dawley (SD) rats; assay: Bleomycin-induced SD rat unilateral lung fibrosis model for IPF; format: in vivo
Method: The purpose of this study was to evaluate the therapeutic effect of FC-4 on bleomycin (BLM) induced unilateral lung fibrosis model in Sprague Dawley (SD) rats. Male SD rats (n=50) were randomly divided into the following groups: Sham group (n=10), Model group (n=10), FC-4 administered at 10 mg/kg/day group (n=10), FC-4 administered at 30 mg/kg/day group (n=10), and FC-4 administered at 100 mg/kg/day group (n=10). All test drugs were delivered orally starting from day 8 of modeling for 14 days. Saline solution was taken for sham and model groups once a day, and FC-4 twice a day for drug treatment groups. Rats were anesthetized and the trachea was exposed. Saline was administrated via direct intra-trachea injection in the sham group, and the other groups' animals received a BLM injection at a dose of 3 mg/kg in volume of 1.0 ml/kg. All animals were processed using a non invasive lung function test with EMMS Whole Body Plethysmography system at pre-modeling, and at days 3, 7, 11, 14, 18 and 21 of modeling. One day after the last drug delivery, the left lung of all animals was perfused with 10% formalin, and processed for pathology analysis.
Animals: Species and quality level: SD rats, SPF grade. Gender and number: male, 93. Purchasing body weight range: 260-280 g. […]

[2] = target: T1, recombinant human MMP-12 catalytic domain (Homo sapiens, UniProt P39900); assay: MMP-12 inhibitory assay (fluorogenic MMP substrate cleavage); format: biochemical; settings: readout at 30 minutes
T1 construct: recombinant human MMP-12 catalytic domain; purchased Enzo BM1L-SE138
Method: The inhibitory effect of compounds on the rate of cleaving fluorogenic MMP substrate (Enzo, BML-P128) by recombinant human MMP-12 catalytic domain (Enzo, BM1L-SE138) was carried out by methods known in the art. Briefly, to each well of a 96-well black opaque plate, all the reagents were sequentially added by pipetting, and the final reaction contained 4 nM of recombinant human MMP-12 catalytic domain, 4 μM of fluorogenic MMP substrate, and various concentrations (0.15 nM to 10,000 nM) of tested compound dilutions in HEPES buffer (pH 7.5) containing 10 mM of CaCl2), 0.01% Brij® 35 (polyoxyethylene (23) lauryl ether), and 0.1 mg/ml of BSA.
The enzyme and compounds were pre-incubated on a shaker to mix in wells. After an hour of mixing, fluorogenic substrate was added to each well. Reaction without enzyme was used as a blank control in the plate. The plate was then fed into a plate reader to measure fluorescence intensity at Excitation/Emission wavelengths of 340 nm/440 nm every 10 mins for at least 1 hour at 37° C. The IC50 of each compound in MMP-12 inhibition was determined by using a readout obtained at time point 30 minutes.

T1 sequence (P39900 106-263 limits assumed): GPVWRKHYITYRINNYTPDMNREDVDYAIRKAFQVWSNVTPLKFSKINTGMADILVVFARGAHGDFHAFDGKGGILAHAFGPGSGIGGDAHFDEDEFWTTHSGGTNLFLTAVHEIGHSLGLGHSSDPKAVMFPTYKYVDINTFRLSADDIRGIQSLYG

IC50 [2] | Compound | Share of the Ashcraft score that was score 3 ([1]; all drug treatment groups) | Physical and behavior abnormality ([1]; all tested rats during the experiment)
10 to 100 nM | Cc1cc(CNc2ccc(Sc3ccoc3C3NC(=O)NC3=O)cc2)ccn1 (stereo not drawn) [FC-31] |  | 
100 to 1000 nM | Cc1cc(NCc2ccc(Sc3ccoc3C3NC(=O)NC3=O)cc2)ccn1 (stereo not drawn) [FC-34] |  | 

The remaining lines, values behind:

Compound | IC50 [2] | Share of the Ashcraft score that was score 3 ([1]; all drug treatment groups) | Physical and behavior abnormality ([1]; all tested rats during the experiment)
Cc1cc(COc2ccc(Sc3ccoc3C3NC(=O)NC3=O)cc2)ccn1 (stereo not drawn) [FC-4] |  | ~80% | no obviously physical and behavior abnormality change
Cc1cccc(COc2ccc(Sc3ccoc3C3NC(=O)NC3=O)cc2)[n+]1[O-] (stereo not drawn) [FC-5] | > 1000 nM |  | 
Cc1cc(CCc2ccc(Sc3ccoc3C3NC(=O)NC3=O)cc2)ccn1 (stereo not drawn) [FC-30] | 10 to 100 nM |  | 
